Test results as given in ChEMBL document CHEMBL6153083, “Synthesis, Structural Modification, and Antismall Cell Lung Cancer Activity of 3-Arylisoquinolines with Dual Inhibitory Activity on Topoisomerase I and II” (J Med Chem, 2025).
Active and inactive are the calls of the source. The rule behind the calls is not given here.

Key:
[1] = Acute toxicity in Kunming mouse assessed as lethal dose; conditions: in vivo
[2] = Tmax in Sprague-Dawley rat at 10 mg/kg, ip measured after 24 hrs by LC-MS/MS analysis; assay type: ADME, organism-based; conditions: in vivo
[3] = Cmax in Sprague-Dawley rat at 10 mg/kg, ip measured after 24 hrs by LC-MS/MS analysis; assay type: ADME, organism-based; conditions: in vivo
NCI-H446 [4] = experiment: Induction of apoptosis in human NCI-H446 cells assessed as increase in cleaved caspase-9 level incubated for 48 hrs by Western blot analysis; assay type: functional, cell-based; conditions: dose 1-8 µM
[5] = Antiproliferative activity against human NCI-H196 cells incubated for 72 hrs; assay type: functional, cell-based; conditions: NCI-H196, 72 h
NCI-H1048 [6] = experiment: Induction of cell cycle arrest in human NCI-H1048 cells assessed as accumulation at S phase incubated for 48 hrs by PI staining based flow cytometry; assay type: functional
NCI-H1048 [7] = experiment: Inhibition of clonogenesis in human NCI-H1048 cells incubated for 14 to 21 days by crystal violet staining based analysis; assay type: functional, cell-based; conditions: dose 0.375-3 µM, time 14-21 day
NCI-H446 [8] = experiment: Induction of apoptosis in human NCI-H446 cells assessed as formation of membrane blebbing at 1 to 8 uM incubated for 48 hrs by Geimsa staining based analysis; assay type: functional, cell-based; conditions: dose 1-8 µM
NCI-H446 [9] = experiment: Inhibition of cell invasion in human NCI-H446 cells incubated for 24 hrs by transwell assay; assay type: functional, cell-based
NCI-H1048 [10] = experiment: Inhibition of cell migration in human NCI-H1048 cells incubated for 24 hrs by wound-healing assay; assay type: functional, cell-based; conditions: dose 0.375-3 µM
NCI-H1048 [11] = experiment: Inhibition of cell invasion in human NCI-H1048 cells incubated for 24 hrs by transwell assay; assay type: functional, cell-based
[12] = AUC (0 to infinity) in Sprague-Dawley rat at 10 mg/kg, ip measured after 24 hrs by LC-MS/MS analysis; assay type: ADME, organism-based; conditions: in vivo
[13] = Half life in Sprague-Dawley rat at 10 mg/kg, ip measured after 24 hrs by LC-MS/MS analysis; assay type: ADME, organism-based; conditions: in vivo
[14] = Toxicity in BALB/c nude mouse xenografted with human NCI-H446 cells assessed as body weight change at 10 to 20 mg/kg, ip for 21 days; assay type: organism-based; conditions: in vivo, 504 h, dose 10-20 mg/kg, time 21 day
[15] = Acute toxicity in Kunming mouse assessed as animal death at 400 mg/kg, ip; assay type: organism-based; conditions: in vivo
[16] = Antiproliferative activity against human L02 cells incubated for 72 hrs; assay type: toxicity, cell-based
[17] = Inhibition of PI3K/AKT/mTOR signalling pathway in human NCI-H446 cells assessed as decrease in mTOR level at 1 to 8 uM incubated for 48 hrs by Western blot analysis; assay type: cell-based; conditions: dose 1-8 µM
NCI-H82 = experiment: Antiproliferative activity against human NCI-H82 cells incubated for 72 hrs; assay type: functional, cell-based; conditions: NCI-H82, 72 h
NCI-H446 [18] = experiment: Antiproliferative activity against human NCI-H446 cells incubated for 72 hrs; assay type: functional, cell-based; conditions: NCI-H446, 72 h
[19] = Toxicity in BALB/c nude mouse xenografted with human NCI-H446 cells assessed as deleterious effect in heart at 10 to 20 mg/kg, ip for 21 days by H and E staining based analysis; assay type: organism-based; conditions: in vivo, 504 h, dose 10-20 mg/kg, time 21 day
NCI-H1048 [20] = experiment: Inhibition of cell proliferation in human NCI-H1048 cells incubated for 24 hrs by EdU incorporation assay; assay type: functional, cell-based; conditions: dose 0.375-3 µM
[21] = Antiproliferative activity against human BEAS-2B cells incubated for 72 hrs; assay type: toxicity, cell-based
[22] = Toxicity in BALB/c nude mouse xenografted with human NCI-H446 cells assessed as deleterious effect in lungs at 10 to 20 mg/kg, ip for 21 days by H and E staining based analysis; assay type: organism-based; conditions: in vivo, 504 h, dose 10-20 mg/kg, time 21 day
[23] = MRT (0 to t) in Sprague-Dawley rat at 10 mg/kg, ip measured after 24 hrs by LC-MS/MS analysis; assay type: ADME, organism-based; conditions: in vivo
NCI-H446 [24] = experiment: Induction of apoptosis in human NCI-H446 cells assessed as reduction in cell viability incubated for 48 hrs by Geimsa staining based analysis; assay type: functional; conditions: dose 1-8 µM
NCI-H1048 [25] = experiment: Induction of apoptosis in human NCI-H1048 cells assessed as decrease in Bcl-2 level incubated for 48 hrs by Western blot analysis; assay type: functional, cell-based
NCI-H446 [26] = experiment: Induction of apoptosis in human NCI-H446 cells assessed as increase in Bax level incubated for 48 hrs by Western blot analysis; assay type: functional, cell-based; conditions: dose 1-8 µM
NCI-H446 [27] = experiment: Antitumor activity against human NCI-H446 cells xenografted in BALB/c nude mouse at 10 mg/kg, ip for 21 days relative to control; assay type: functional; conditions: NCI-H446, 504 h, time 21 day, read-out: TGI
NCI-H446 [28] = experiment: Induction of apoptosis in human NCI-H446 cells assessed as decrease in Bcl-2 level incubated for 48 hrs by Western blot analysis; assay type: functional, cell-based; conditions: dose 1-8 µM
[29] = Toxicity in BALB/c nude mouse xenografted with human NCI-H446 cells assessed as deleterious effect in liver at 10 to 20 mg/kg, ip for 21 days by H and E staining based analysis; assay type: organism-based; conditions: in vivo, 504 h, dose 10-20 mg/kg, time 21 day
[30] = Acute toxicity in Kunming mouse assessed as change in body weight at 300 mg/kg, ip measured for 10 days; assay type: organism-based; conditions: in vivo, 240 h, time 10 day
Homo sapiens = species on record: Homo sapiens; experiment: Inhibition of Topo II (unknown origin) relaxation activity using pBR322 plasmid DNA as substrate at 25 to 100 uM incubated for 30 mins in presence of ATP; conditions: dose 25-100 µM
NCI-H446 [31] = experiment: Inhibition of clonogenesis in human NCI-H446 cells incubated for 14 to 21 days by crystal violet staining based analysis; assay type: functional, cell-based; conditions: dose 0.375-3 µM, time 14-21 day
NCI-H1048 [32] = experiment: Induction of DNA damage in human NCI-H1048 cells incubated for 48 hrs by comet assay; assay type: functional, cell-based; conditions: dose 1-8 µM
NCI-H446 [33] = experiment: Inhibition of cell migration in human NCI-H446 cells incubated for 24 hrs by transwell assay; assay type: functional, cell-based; conditions: dose 0.375-3 µM
[34] = AUC (0 to t) in Sprague-Dawley rat at 10 mg/kg, ip measured after 24 hrs by LC-MS/MS analysis; assay type: ADME, organism-based; conditions: in vivo
NCI-H1048 [35] = experiment: Induction of apoptosis in human NCI-H1048 cells assessed as increase in Bax level incubated for 48 hrs by Western blot analysis; assay type: functional, cell-based
NCI-H446 [36] = experiment: Induction of mitochondrial dysfunction in human NCI-H446 cells assessed as increase in ROS level at 1 to 8 uM incubated for 48 hrs by DCFH-DA staining based flow cytometry; assay type: functional, cell-based; conditions: dose 1-8 µM
NCI-H446 [37] = experiment: Induction of apoptosis in human NCI-H446 cells assessed as increase in cleaved caspase-3 level incubated for 48 hrs by Western blot analysis; assay type: functional, cell-based; conditions: dose 1-8 µM
NCI-H446 [38] = experiment: Induction of apoptosis in human NCI-H446 cells assessed as chromatin condensation at 1 to 8 uM incubated for 48 hrs by Geimsa staining based analysis; assay type: functional, cell-based; conditions: dose 1-8 µM
NCI-H446 [39] = experiment: Induction of cell cycle arrest in human NCI-H446 cells assessed as accumulation at S phase incubated for 48 hrs by PI staining based flow cytometry; assay type: functional; conditions: dose 1-8 µM
NCI-H446 [40] = experiment: Induction of DNA damage in human NCI-H446 cells incubated for 48 hrs by comet assay; assay type: functional, cell-based; conditions: dose 1-8 µM
NCI-H209 = experiment: Antiproliferative activity against human NCI-H209 cells incubated for 72 hrs; assay type: functional, cell-based; conditions: NCI-H209, 72 h
[41] = Toxicity in BALB/c nude mouse xenografted with human NCI-H446 cells assessed as deleterious effect in spleen at 10 to 20 mg/kg, ip for 21 days by H and E staining based analysis; assay type: organism-based; conditions: in vivo, 504 h, dose 10-20 mg/kg, time 21 day

For CC1CC(C)CN(Cc2cc3c(cc2-c2cc4ccc5c(c4cn2)OCO5)OCO3)C1 (stereo not drawn), the LD50 [1] was 300 mg/kg, the Tmax [2] was 0.25 h and the Cmax [3] was 145 ng/mL. For the same compound, the Activity (NCI-H446 [4]) was “Dose-dependent-effect”, the IC50 [5] was 9.51 µM and the Activity (NCI-H1048 [6]) was “Dose-dependent-effect”. The inhibition (NCI-H1048 [7]) was “Dose-dependent-effect; Potent Inhibitory Effect At Equivalent Efficacy As Etoposide”, the Activity (NCI-H446 [8]) was “Active” and the inhibition (NCI-H446 [9]) was “Dose-dependent-effect; Displayed Stronger Inhibitory Effect Than Etoposide”. The inhibition (NCI-H1048 [10]) was “Dose-dependent-effect; Exhibited Superior Inhibitory Effect Compared To Etoposide At Same Concentration”, the inhibition (NCI-H1048 [11]) was “Dose-dependent-effect; Displayed Stronger Inhibitory Effect Than Etoposide” and the AUC(0-inf) [12] was 741 ng·h/mL. The half-life [13] was 3.38 h, the Activity [14] was “Non-toxic” and the Activity [15] was “Toxic”. For the same compound, the IC50 at 72 h [16] was 29.1 µM, the inhibition [17] was “Active” and the IC50 (NCI-H82) was 2.25 µM. The IC50 (NCI-H446 [18]) was 1.3 µM, the Activity [19] was “Non-toxic” and the inhibition (NCI-H1048 [20]) was “Dose-dependent-effect; Compound Effect Surpassed Etoposide Effect”. The IC50 at 72 h [21] was 27.5 µM, the Activity [22] was “Non-toxic” and the MRT last at 24 h [23] was 5.02 h. The Activity (NCI-H446 [24]) was “Dose-dependent-effect”, the Activity (NCI-H1048 [25]) was “Dose-dependent-effect” and the Activity (NCI-H446 [26]) was “Dose-dependent-effect”. The inhibition in vivo at 10 mg/kg (NCI-H446 [27]) was 75.2%, the Activity (NCI-H446 [28]) was “Dose-dependent-effect” and the Activity [29] was “Non-toxic”. For the same compound, the Activity [30] was “Non-toxic”, the inhibition (Homo sapiens) was “Active; Exhibited Stronger Activity Against Topo Ii Compared To Topo I” and the inhibition (NCI-H446 [31]) was “Dose-dependent-effect”. For the same compound, the Activity (NCI-H1048 [32]) was “Dose-dependent-effect”, the inhibition (NCI-H446 [33]) was “Dose-dependent-effect; Displayed Stronger Inhibitory Effect Than Etoposide” and the AUC(0-t) at 24 h [34] was 736 ng·h/mL. The Activity (NCI-H1048 [35]) was “Dose-dependent-effect”, the Activity (NCI-H446 [36]) was “Active” and the Activity (NCI-H446 [37]) was “Dose-dependent-effect”. For the same compound, the Activity (NCI-H446 [38]) was “Active”, the Activity (NCI-H446 [39]) was “Dose-dependent-effect” and the Activity (NCI-H446 [40]) was “Dose-dependent-effect”. For the same compound, the IC50 (NCI-H209) was 36.8 µM and the Activity [41] was “Non-toxic”.
With CCC1CCCC(C)N1Cc1cc2c(cc1-c1cc3ccc4c(c3cn1)OCO4)OCO2 (stereo not drawn) the LD50 [1] was 300 mg/kg, the Tmax [2] was 0.25 h and the Cmax [3] was 228 ng/mL. The Activity (NCI-H446 [4]) was “Dose-dependent-effect”, the IC50 [5] was 13.9 µM and the Activity (NCI-H1048 [6]) was “Dose-dependent-effect”. The inhibition (NCI-H1048 [7]) was “Dose-dependent-effect”, the Activity (NCI-H446 [8]) was “Active” and the inhibition (NCI-H446 [9]) was “Dose-dependent-effect”. For the same compound, the inhibition (NCI-H1048 [10]) was “Dose-dependent-effect”, the inhibition (NCI-H1048 [11]) was “Dose-dependent-effect” and the AUC(0-inf) [12] was 1210 ng·h/mL. For the same compound, the half-life [13] was 4.86 h, the Activity [14] was “Non-toxic” and the Activity [15] was “Toxic”. The IC50 at 72 h [16] was 26.1 µM, the inhibition [17] was “Active” and the IC50 (NCI-H82) was 2.41 µM. For the same compound, the IC50 (NCI-H446 [18]) was 1.32 µM, the Activity [19] was “Non-toxic” and the inhibition (NCI-H1048 [20]) was “Dose-dependent-effect; Compound Effect Surpassed Etoposide Effect”. For the same compound, the IC50 at 72 h [21] was > 100 µM, the Activity [22] was “Non-toxic” and the MRT last at 24 h [23] was 5.42 h. The Activity (NCI-H446 [24]) was “Dose-dependent-effect”, the Activity (NCI-H1048 [25]) was “Dose-dependent-effect” and the Activity (NCI-H446 [26]) was “Dose-dependent-effect”. The inhibition in vivo at 10 mg/kg (NCI-H446 [27]) was 69.2%, the Activity (NCI-H446 [28]) was “Dose-dependent-effect” and the Activity [29] was “Non-toxic”. For the same compound, the Activity [30] was “Non-toxic”, the inhibition (Homo sapiens) was “Active; Exhibited Stronger Activity Against Topo Ii Compared To Topo I” and the inhibition (NCI-H446 [31]) was “Dose-dependent-effect”. For the same compound, the Activity (NCI-H1048 [32]) was “Dose-dependent-effect”, the inhibition (NCI-H446 [33]) was “Dose-dependent-effect” and the AUC(0-t) at 24 h [34] was 1180 ng·h/mL. For the same compound, the Activity (NCI-H1048 [35]) was “Dose-dependent-effect”, the Activity (NCI-H446 [36]) was “Active” and the Activity (NCI-H446 [37]) was “Dose-dependent-effect”. For the same compound, the Activity (NCI-H446 [38]) was “Active”, the Activity (NCI-H446 [39]) was “Dose-dependent-effect” and the Activity (NCI-H446 [40]) was “Dose-dependent-effect”. For the same compound, the IC50 (NCI-H209) was 11.6 µM and the Activity [41] was “Non-toxic”.
